Measured values published in patent publication US12344600B2, “c-Myc mRNA translation modulators and uses thereof in the treatment of cancer” (Anima Biotech Inc., priority 2022, dated 2025).

These compounds were tested on c-Myc (assay: c-Myc immunofluorescence assay). Details: A549 cells, 24 hours, anti-c-Myc immunofluorescence.
Assay type: cell-based, human
Method in brief: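 A549 NSCLC cells grown 48 h, then treated 24 h with increasing compound concentrations; fixed in 4% paraformaldehyde, stained with anti-c-Myc antibody plus fluorescent secondary and DAPI. Per-cell c-Myc fluorescence quantified by high-content imaging at 20×; dose-response fitted by logistic regression to give EC50.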

SMILES	Myc Efficacy (−LogEC50)
COc1ccc(-c2noc(N3CCC(C(=O)NCc4cccc(OC(C)C)c4)CC3)n2)cc1 [Compound 300, N-(3-isopropoxybenzyl)-1-(3-(4-methoxyphenyl)-1,2,4-oxadiazol-5-yl)piperidine-4-carboxamide]	++ (++ ≥5 and <6)
COc1ccc(-c2noc(N3CCC(C(=O)NCC4CCCc5cccnc54)CC3)n2)cc1 (stereo not shown) [Compound 301, 1-(3-(4-methoxyphenyl)-1,2,4-oxadiazol-5-yl)-N-((5,6,7,8-tetrahydroquinolin-8-yl)methyl)piperidine-4-carboxamide]	+ (+ >3 and <5)
COc1ccc(-c2noc(N3CCC(C(=O)NC4CCN(C)c5ccccc54)CC3)n2)cc1 (stereo not shown) [Compound 302, 1-(3-(4-methoxyphenyl)-1,2,4-oxadiazol-5-yl)-N-(1-methyl-1,2,3,4-tetrahydroquinolin-4-yl)piperidine-4-carboxamide]	+ (+ >3 and <5)
COc1ccc(-c2noc(N3CCC(C(=O)NCC4OCCc5ccccc54)CC3)n2)cc1 (stereo not shown) [Compound 303, N-(isochroman-1-ylmethyl)-1-(3-(4-methoxyphenyl)-1,2,4-oxadiazol-5-yl)piperidine-4-carboxamide]	+ (+ >3 and <5)
COc1ccc(-c2noc(N3CCC(C(=O)NCC(c4ccccc4)N(C)C)CC3)n2)cc1 (stereo not shown) [Compound 304, N-(2-(dimethylamino)-2-phenylethyl)-1-(3-(4-methoxyphenyl)-1,2,4-oxadiazol-5-yl)piperidine-4-carboxamide]	+ (+ >3 and <5)
COc1ccc(-c2noc(N3CCC(C(=O)NCC(O)Cc4ccccc4)CC3)n2)cc1 (stereo not shown) [Compound 305, N-(2-hydroxy-3-phenylpropyl)-1-(3-(4-methoxyphenyl)-1,2,4-oxadiazol-5-yl)piperidine-4-carboxamide]	+ (+ >3 and <5)
COc1ccc(-c2noc(N3CCC(C(=O)Nc4ccc(C5COC5)cc4)CC3)n2)cc1 [Compound 306, 1-(3-(4-methoxyphenyl)-1,2,4-oxadiazol-5-yl)-N-(4-(oxetan-3-yl)phenyl)piperidine-4-carboxamide]	+ (+ >3 and <5)
COc1ccc(-c2noc(N3CCC(C(=O)NCC4(c5ccc(F)cc5F)CC4)CC3)n2)cc1 [Compound 307, N-((1-(2,4-difluorophenyl)cyclopropyl)methyl)-1-(3-(4-methoxyphenyl)-1,2,4-oxadiazol-5-yl)piperidine-4-carboxamide]	+ (+ >3 and <5)
COc1ccc(-c2noc(N3CCC(C(=O)NCc4ccc(OC)c(C(F)(F)F)c4)CC3)n2)cc1 [Compound 308, N-(4-methoxy-3-(trifluoromethyl)benzyl)-1-(3-(4-methoxyphenyl)-1,2,4-oxadiazol-5-yl)piperidine-4-carboxamide]	+ (+ >3 and <5)
COc1ccc(-c2noc(N3CCC(C(=O)NCCc4cccc(C(F)(F)F)n4)CC3)n2)cc1 [Compound 309, 1-(3-(4-methoxyphenyl)-1,2,4-oxadiazol-5-yl)-N-(2-(6-(trifluoromethyl)pyridin-2-yl)ethyl)piperidine-4-carboxamide]	− (− ≤3)
COc1ccc(-c2noc(N3CCC(C(=O)NC(C)Cc4c[nH]c5ccccc45)CC3)n2)cc1 (stereo not shown) [Compound 310, N-(1-(1H-indol-3-yl)propan-2-yl)-1-(3-(4-methoxyphenyl)-1,2,4-oxadiazol-5-yl)piperidine-4-carboxamide]	+ (+ >3 and <5)
COc1ccc(-c2noc(N3CCC(C(=O)NCc4cc(C)ccc4F)CC3)n2)cc1 [Compound 311, N-(2-fluoro-5-methylbenzyl)-1-(3-(4-methoxyphenyl)-1,2,4-oxadiazol-5-yl)piperidine-4-carboxamide]	− (− ≤3)
COc1ccc(-c2noc(N3CCC(C(=O)NC4CCC5(CCOCC5)CC4)CC3)n2)cc1 [Compound 312, 1-(3-(4-methoxyphenyl)-1,2,4-oxadiazol-5-yl)-N-(3-oxaspiro[5.5]undecan-9-yl)piperidine-4-carboxamide]	+ (+ >3 and <5)
